In this assay the test system is PDGFRA D842V-mutant GIST. The assay is described as follows: Phase 1 dose escalation and expansion study in advanced GIST: efficacy (mRECIST 1.1, central radiology). In kind it is in vivo, human. Particulars: for OS (estimated): median follow up 15.9 months. The text has this: Patients: Eligibility criteria for the phase 1 dose escalation and expansion study included provision of written informed consent, age ≥18 years, Eastern Cooperative Oncology Group performance status ≤2, and adequate end-organ function. The dose escalation part of the trial was open to patients with refractory solid tumors or unresectable GIST; however, only GIST patients were enrolled. Patients with unresectable GIST who had one or more measurable target lesion per modified Response Evaluation Criteria in Solid Tumors version 1.1 (mRECIST 1.1) were eligible for the dose expansion, which included three cohorts: patients with PDGFRA D842V-mutant GIST regardless of prior therapy; patients who progressed following imatinib and one or more other kinase inhibitors; and patients who received only imatinib.
Study Design: The primary endpoints of the phase 1, open-label dose escalation/expansion study were safety and tolerability of Compound (I) administered orally once daily and overall response rate (ORR) for each expansion cohort. Part 1 followed a 3+3 dose-escalation design, starting at 30 mg and continuing until the maximum tolerated dose (MTD) or the recommended phase 2 dose (RP2D) below the MTD was determined. Intrapatient dose escalation was permitted, and additional accrual was allowed to dose levels previously determined tolerable. The part 1 MTD was used to initiate the part 2 expansion. Treatment with Compound (I) was continued until precluded by toxicity, noncompliance, withdrawal of consent, physician decision, progressive disease, death, or closure of the study.
Safety and Response Assessments: Adverse events were evaluated at each visit from the start of study drug administration up to 30 days after the final dose of Compound (I) and were graded according to the National Cancer Institute Common Terminology Criteria for Adverse Events (NCI CTCAE) version 4.03. All patients underwent tumor imaging for response assessment via computed tomography (CT) or magnetic resonance imaging (MRI) at screening, every two cycles through and including cycle 13, then every three months until progression or discontinuation. Target and non-target lesions were identified and assessed per mRECIST 1.1 for GIST by independent, blinded, central radiographic review (BioTelemetry, Inc., Rockville, MD, USA).
Statistical Methods: The MTD, defined as the highest dose level with ≤1 cycle 1 dose limiting toxicity in six patients, was determined from all part 1 patients who completed cycle 1 and received at least 75% of their prescribed doses or experienced a dose limiting toxicity (DLT) (dose-determining population). The efficacy population included patients who received at least one dose of Compound (I) enrolled in part 1 or part 2 with PDGFRα D842V-mutant GIST who had one or more target lesions and at least one post-baseline disease assessment by central radiology. For the primary endpoint of partial or complete response, a sample size of 31 patients allowed testing the null hypothesis of overall response rate ≤10% versus the alternative hypothesis of objective response rate ≥35% with 90% power, assuming a 2-sided type I error rate of 0.05. Kaplan-Meier methods were used to estimate duration of response, PFS and OS, including the median with 95% confidence intervals. Estimated duration of response, PFS, and OS rates at 3-, 6-, and 12-months were also calculated.

SMILES strings stand for the structures.

For `Cn1cc(-c2cc3c(N4CCN(c5ncc([C@@](C)(N)c6ccc(F)cc6)cn5)CC4)ncnn3c2)cn1` [Compound (I), (S)-1-(4-fluorophenyl)-1-(2-(4-(6-(1-methyl-1H-pyrazol-4-yl)pyrrolo[2,1-f][1,2,4]triazin-4-yl)piperazin-1-yl)pyrimidin-5-yl)ethan-1-amine], where the note is “300 mg (n = 28)”, the “CBR (CR + PR + SD)” value is reported as “(96.4) %”; the “CBR (CR + PR + SD), number of patients” value is 27 n; the CR entry is “(3.6) %”; the “CR, number of patients” value is recorded as 1 n. Also, where the note is “300 mg (n = 28)”, the “ORR (CR + PR), number of patients” value was determined as 26 n; the “PD, number of patients” value was 0 n; the PR entry is listed as “(89.2) %”; the “PR, number of patients” value was found to be 25 n. For the same compound, under “3-month”, the “Progression free survival rate” value came to 100%. In addition, the “Progression free survival rate” value (6-month) was determined as 94%. Under “6 months”, the “OS (estimated)” value is 100%. In addition, the “Progression free survival rate” value (12-month) was 90%. The “OS (estimated)” value (12 months) was 91%. In addition, where the note is “24 months”, the “OS (estimated)” value is 81%. For the setting “All Doses (n = 56)”, the “CBR (CR + PR + SD), number of patients” value is 53 n; the “CR, number of patients” value was 5 n; the “ORR (CR + PR), number of patients” value was determined as 49 n; the “PD, number of patients” value is 0 n. Moreover, under “All Doses (n = 56)”, the “PR, number of patients” value is 44 n. Besides, under “all dose levels”, the “Median PFS” value is listed as “not reached” and the “Median duration of response” value was “not reached”. The “12-month duration of response” value (all dose levels, Kaplan-Meier) was found to be 70%.

The values are drawn from patent US11964980B2, “Crystalline forms of (S)-1-(4-fluorophenyl)-1-(2-(4-(6-(1-methyl-1H-pyrazol-4-yl)pyrrolo[2,1- f][1,2,4]triazin-4-yl)piperazinyl)-pyrimidin-5-yl)ethan-1-amine and methods of making” (Blueprint Medicines Corporation, priority 2019, dated 2024).
